Values quoted from earlier work as cited in PubChem BioAssay AID1259409 (Chemical Carcinogenesis Research Information System (CCRIS), 2018).

Tested on: rodent chemically induced tumor inhibition, incidence and multiplicity
Test: CCRIS tumor inhibitor studies
Conditions: Promoter: NONE USED; for outcome: Dose [Inhibitor]: 3 MG/KG BW IN 0.1 ML CORN OIL 3/WK FOR DURATION OF EXPERIMENT BEGINNING 15 D POST CARCINOGEN DOSE, Target Tissue: Type of Lesion: MAMMARY GLAND: ADENOCARCINOMA, FIBROADENOMA, Dose [Carcinogen]: 5 OR 10 MG IN 0.5 ML CORN OIL ONCE

For CC(C)C[C@H]1C(=O)N2CCC[C@H]2[C@]2(O)O[C@](NC(=O)[C@@H]3C=C4c5cccc6[nH]c(Br)c(c56)C[C@H]4N(C)C3)(C(C)C)C(=O)N12, the “tumour outcome (control, treated, inhibition, significance)” value (Carcinogen: DIMETHYLBENZ[A]ANTHRACENE, 57-97-6, Dose [Inhibitor]: 3 MG/KG BW (0.1 ML) IN CORN OIL 5/WK OR 6/WK FOR 2 WK (11 INJECTIONS) BEGINNING 15 D PRIOR TO CARCINOGEN DOSE AT 35 D OF, Route [Inhibitor]: SUBCUTANEOUS, Species: RAT, Strain/Sex: SPRAGUE-DAWLEY/FEMALE, Target Tissue: Type of Lesion: MAMMARY GLAND: TUMOR, Dose [Carcinogen]: 5 MG/RAT IN CORN OIL ONCE) is given as 13/22 (59%), 11/24 (46%), 22%, not significant, the outcome (Carcinogen: DIMETHYLBENZ[A]ANTHRACENE, 57-97-6, MAINTAINED ON 0.5% FA, Route [Inhibitor]: SUBCUTANEOUS, Species: RAT, Strain/Sex: SPRAGUE-DAWLEY/FEMALE) is given as 34%, 0%, 100%, not calculated (low dose carcinogen); 38%, 18%, 53%, not calculat and the outcome (Carcinogen: DIMETHYLBENZ[A]ANTHRACENE, 57-97-6, MAINTAINED ON 20% FAT, Route [Inhibitor]: SUBCUTANEOUS, Species: RAT, Strain/Sex: SPRAGUE-DAWLEY/FEMALE) is given as 56%, 0%, 100%, not calculated (low dose carcinogen); 58%, 19%, 67%, not calculat. The “tumour outcome (control, treated, inhibition, significance)” value (Carcinogen: DIMETHYLBENZ[A]ANTHRACENE, 57-97-6, Dose [Inhibitor]: 400 UG/100 G BW TOGETHER WITH 25 UG TAMOXIFEN/100 G BW 1/D FOR 20 WK BEGINNING 3 D POST CARCINOGEN DOSE (STUDY DURATION:, Route [Inhibitor]: SUBCUTANEOUS, Species: RAT, Strain/Sex: SPRAGUE-DAWLEY/FEMALE, Target Tissue: Type of Lesion: MAMMARY GLAND: CARCINOMA, Dose [Carcinogen]: 5 MG ONCE AT 53 D OF AGE) was 85%, 21%, 75%, p<0.001 at 20 wk, the “tumour outcome (control, treated, inhibition, significance)” value (Carcinogen: DIMETHYLBENZ[A]ANTHRACENE, 57-97-6, Dose [Inhibitor]: 400 UG/100 G BW TOGETHER WITH 25 UG TAMOXIFEN/100 G BW 1/D FOR 20 WK BEGINNING 3 D POST CARCINOGEN DOSE (STUDY DURATION:, Route [Inhibitor]: SUBCUTANEOUS, Species: RAT, Strain/Sex: SPRAGUE-DAWLEY/FEMALE, Target Tissue: Type of Lesion: MAMMARY GLAND: CARCINOMA, Dose [Carcinogen]: 10 MG ONCE AT 53 D OF AGE) was 90%, 10%, 89%, p<0.001 at 12 wks and the “tumour outcome (control, treated, inhibition, significance)” value (Carcinogen: DIMETHYLBENZ[A]ANTHRACENE, 57-97-6, Dose [Inhibitor]: 400 UG/100 G BW TOGETHER WITH 25 UG TAMOXIFEN/100 G BW 1/D FOR 26 WK BEGINNING 3 D POST CARCINOGEN DOSE (STUDY DURATION:, Route [Inhibitor]: SUBCUTANEOUS, Species: RAT, Strain/Sex: SPRAGUE-DAWLEY/FEMALE, Target Tissue: Type of Lesion: MAMMARY GLAND: CARCINOMA, Dose [Carcinogen]: 20 MG ONCE AT 53 D OF AGE) was 100%, 12%, 88%, p<0.001 at 11 wks. The “tumour outcome (control, treated, inhibition, significance)” value (Carcinogen: DIMETHYLBENZ[A]ANTHRACENE, 57-97-6, Dose [Inhibitor]: 400 UG/100 G BW TOGETHER WITH 25 UG TAMOXIFEN/100 G BW 1/D PLUS 68 MG RETINYL ACETATE/KG OF DIET, BEGINNING 3 D POST CAR, Route [Inhibitor]: SUBCUTANEOUS, Species: RAT, Strain/Sex: SPRAGUE-DAWLEY/FEMALE, Target Tissue: Type of Lesion: MAMMARY GLAND: CARCINOMA, Dose [Carcinogen]: 20 MG ONCE AT 53 D OF AGE) was 100%, 3%, 97%, p<0.001 at 11 wk, the “tumour outcome (control, treated, inhibition, significance)” value (Carcinogen: DIMETHYLBENZ[A]ANTHRACENE, 57-97-6, Dose [Inhibitor]: 400 UG/100 G BW TOGETHER WITH 25 UG TAMOXIFEN/100 G BW 1/D PLUS 204 MG RETINYL ACETATE/KG OF DIET, BEGINNING 3 D POST CA, Route [Inhibitor]: SUBCUTANEOUS, Species: RAT, Strain/Sex: SPRAGUE-DAWLEY/FEMALE, Target Tissue: Type of Lesion: MAMMARY GLAND: CARCINOMA, Dose [Carcinogen]: 10 MG ONCE AT 53 D OF AGE) was 90%, 5%, 94%, p<0.001 at 12 wk and the “tumour outcome (control, treated, inhibition, significance)” value (Carcinogen: DIMETHYLBENZ[A]ANTHRACENE, 57-97-6, Dose [Inhibitor]: 400 UG/100 G BW TOGETHER WITH 25 UG TAMOXIFEN/100 G BW 1/D PLUS 328 MG RETINYL ACETATE/KG DIET BEGINNING 3 D POST CARCIN, Route [Inhibitor]: SUBCUTANEOUS, Species: RAT, Strain/Sex: SPRAGUE-DAWLEY/FEMALE, Target Tissue: Type of Lesion: MAMMARY GLAND: CARCINOMA, Dose [Carcinogen]: 5 MG ONCE AT 53 D OF AGE) was 85%, 5%, 94%, p<0.001 at 20 wk. The “tumour outcome (control, treated, inhibition, significance)” value (Carcinogen: ENOVID (NORETHYNODREL WITH MESTRANOL), 8015-30-3, Dose [Inhibitor]: 0.1 MG 1/D FOR 21 MO BEGINNING CONCURRENTLY WITH CARCINOGEN DOSE (STUDY DURATION: 21 MO), Route [Inhibitor]: SUBCUTANEOUS, Species: MOUSE, Strain/Sex: C3H/FEMALE, Target Tissue: Type of Lesion: MAMMARY GLAND: CARCINOMA, Dose [Carcinogen]: 0.1 MG 2/WK FOR 21 MO) was 30/100 (30%), 10/100 (10%), 67%, p<0.001, the “tumour outcome (control, treated, inhibition, significance)” value (Carcinogen: ESTRONE, 53-16-7, PROGESTERONE, 57-83-0, Carcinogen: ESTRONE, 53-16-7, PROGESTERONE, 57-83-0, Dose [Inhibitor]: 100 UG 1/D FOR 13 WK BEGINNING CONCURRENTLY WITH CARCINOGEN DOSE (STUDY DURATION: NOT STATED, DATA INDICATES 13 WK), Route [Inhibitor]: SUBCUTANEOUS, Species: MOUSE, Strain/Sex: STRAIN-GR/FEMALE, Target Tissue: Type of Lesion: MAMMARY GLAND: PAPILLARY CARCINOMA, Dose [Carcinogen]: 0.5 MG/L FOR 13 WK IN DRINKING WATER BEGINNING AT 15 WK OF AGE, THEN 30 MG PELLET IMPLANT 1/MO BEGINNING AT 15 WK OF AGE) was 58/119 (49%), 34/119 (29%), 41%, p<0.005 and the “tumour outcome (control, treated, inhibition, significance)” value (Carcinogen: ISONIAZID, 54-85-3, Dose [Inhibitor]: 5000 PPM IN DIET STARTING 1 WK PRIOR TO ADMINISTRATION OF CARCINOGEN UNTIL END OF EXPERIMENT (STUDY DURATION: APPROXIMAT, Route [Inhibitor]: ORAL, Species: MOUSE, Strain/Sex: SWISS/MALE, FEMALE, Target Tissue: Type of Lesion: LIVER AND LUNG: COMBINED TUMORS, Dose [Carcinogen]: 1.1 MG/D 5 D/WK UNTIL 25 MO OF AGE) was 16/29 (55%), 4/20 (20%), 64%, p<o.o5. The “tumour outcome (control, treated, inhibition, significance)” value (Carcinogen: N-METHYL-N'-NITRO-N-NITROSOGUANIDINE, 70-25-7, Dose [Inhibitor]: 0, 0.25 MG/KG AS A SUSPENSION IN OLIVE OIL 1/2 D BEGINNING POST CARCINOGEN DOSE AND CONTINUING FOR DURATION OF STUDY (ST, Route [Inhibitor]: SUBCUTANEOUS, Species: RAT, Strain/Sex: WISTAR/MALE, Target Tissue: Type of Lesion: STOMACH: ADENOCARCINOMA, Dose [Carcinogen]: 50 UG/ML IN DRINKING WATER FOR 25 WK) was 12/19 (63%), 12/20 (60%), 5%, not calculated and the “tumour outcome (control, treated, inhibition, significance)” value (Carcinogen: N-METHYL-N'-NITRO-N-NITROSOGUANIDINE, 70-25-7, Dose [Inhibitor]: 0, 0.5 MG/KG AS A SUSPENSION IN OLIVE OIL 1/2 D BEGINNING POST CARCINOGEN DOSE AND CONTINUING FOR DURATION OF STUDY (STU, Route [Inhibitor]: SUBCUTANEOUS, Species: RAT, Strain/Sex: WISTAR/MALE, Target Tissue: Type of Lesion: STOMACH: ADENOCARCINOMA, Dose [Carcinogen]: 50 UG/ML IN DRINKING WATER FOR 25 WK) was 12/19 (63%), 10/20 (50%), 21%, not calculated.
